Data as given in PubChem BioAssay AID1996.
In brackets after ≈: the same amount, converted by molar mass.

Conditions: buffer; pH 7.4; 200.0 µM
`CS(=O)(=O)Nc1ccc(C(=O)Nc2ccc3ccccc3c2)cc1` gave a solubility kinetic of less than 0.0004 mg/mL. `O=C(NC1CCCCCCC1)c1cc(-c2ccccn2)nc2ccccc12` gave a solubility kinetic of less than 0.0003 mg/mL. Work on `NC(=O)CN1C(=O)C(=O)N(Cc2ccc(F)cc2)C1=O` yielded a solubility kinetic greater than 0.0419 mg/mL. Work on `CCOC(=O)c1c2c([nH]c(=S)c1C#N)CCCC2` yielded a solubility kinetic of 0.0295 mg/mL (≈ 112 µM). Compound `Nc1ccccc1Sc1c[nH]c2ccccc12` has a solubility kinetic of 0.0278 mg/mL (≈ 116 µM). Compound `COc1ccccc1CNC(=O)C1(C)Oc2cccnc2NC1=O` (centres undefined) has a solubility kinetic greater than 0.0491 mg/mL. `CSc1cccc(NC(=S)NCCCO)c1` showed a solubility kinetic of 0.0373 mg/mL (≈ 145 µM). For `COC(=O)[C@@H](N)CCCN=C(N)N[N+](=O)[O-].Cl`, the solubility kinetic was greater than 0.0405 mg/mL. Work on `O=C(c1ccc(-c2ccc(Cl)cc2Cl)o1)N1CCOCC1` yielded a solubility kinetic of 0.0042 mg/mL (≈ 12.9 µM). Work on `COC(=O)c1c(C)[nH]c(C(=O)C(C)OC(=O)c2cnc(C)cn2)c1C` (centres undefined) yielded a solubility kinetic of 0.0492 mg/mL (≈ 142 µM). For `CC(C)CCn1c2ccccc2c2cc(CC(N)=O)ccc21`, the solubility kinetic was 0.0004 mg/mL (≈ 1.36 µM). For `O=C(Nc1ccccc1Br)c1c(F)cccc1Cl`, the solubility kinetic was 0.0135 mg/mL (≈ 41.1 µM). For `O=C1Cc2ccccc2C(=O)N1c1ccc(F)cc1Cl`, the solubility kinetic was 0.0373 mg/mL (≈ 129 µM). For `CSc1ncccc1C(=O)OC(C)C(=O)Nc1cccc(S(=O)(=O)N2CCOCC2)c1` (centres undefined), the solubility kinetic was 0.0084 mg/mL (≈ 18 µM). Compound `COc1cc(CC(=O)OCC(=O)N(C)C2CCCCC2)cc(OC)c1OC` has a solubility kinetic of 0.0524 mg/mL (≈ 138 µM). With `CC(=O)c1c(C)[nH]c(C(=O)COC(=O)CN2C(=O)C3CCCCC3C2=O)c1C` (centres undefined) the solubility kinetic was greater than 0.0583 mg/mL. With `CC(C)c1ccc(CN2CCSCC2)cc1` the solubility kinetic was 0.0011 mg/mL (≈ 4.67 µM). Work on `Cc1ccc(NC(=O)CNC(=O)c2ccco2)nc1` yielded a solubility kinetic greater than 0.0389 mg/mL. For `O=C(Nc1nccs1)C(c1ccccc1)N1CCCC1` (centres undefined), the solubility kinetic was greater than 0.0431 mg/mL. Compound `Cc1nc(NC(=O)CN2CCOCC2)sc1C(=O)N(C)C` has a solubility kinetic of 0.04 mg/mL (≈ 128 µM). Work on `O=C(c1ccncc1)c1ccc([N+](=O)[O-])cc1` yielded a solubility kinetic greater than 0.0342 mg/mL. `CC(C)(C)SCCNC(=O)CN1C(=O)c2cccc3cccc1c23` showed a solubility kinetic of 0.0028 mg/mL (≈ 8.18 µM). In the case of `COc1cccc(/C=C(\C)C(=O)c2c(C)cc(C)[nH]c2=O)c1OC`, the solubility kinetic is reported as greater than 0.0491 mg/mL. In the case of `COc1ccc2c(-c3ccccc3)cc(=S)[nH]c2c1`, the solubility kinetic is reported as 0.0024 mg/mL (≈ 8.98 µM). Work on `OCc1nc2c(ccc3ccccc32)[nH]1` yielded a solubility kinetic greater than 0.0297 mg/mL. `N#Cc1ccc(OCc2noc(-c3ccsc3)n2)cc1` showed a solubility kinetic of 0.0003 mg/mL (≈ 1.06 µM). In the case of `O=C(CCc1c[nH]c2ccccc12)OCc1cccc(C(F)(F)F)c1`, the solubility kinetic is reported as 0.001 mg/mL (≈ 2.88 µM). Work on `O=[N+]([O-])c1ncccc1OCc1ccccc1Br` yielded a solubility kinetic of 0.0057 mg/mL (≈ 18.4 µM). With `O=C(CSc1nnc2ccccn12)NNC(=O)c1cccc(Cl)c1` the solubility kinetic was greater than 0.0543 mg/mL. For `O=C(O)CNC(=S)N(Cc1ccc(F)cc1)C1CCCCC1`, the solubility kinetic was greater than 0.0487 mg/mL. `CCn1c(CCC(=O)O)nc2cc(S(=O)(=O)N3CCOCC3)ccc21` gave a solubility kinetic greater than 0.0551 mg/mL. In the case of `COC(=O)c1cccc(Cn2cc([N+](=O)[O-])cn2)c1`, the solubility kinetic is reported as greater than 0.0392 mg/mL. `COc1ccc(/C=C2\C(=O)ON=C2c2ccccc2)cc1OC` gave a solubility kinetic of 0.0457 mg/mL (≈ 148 µM). Compound `O=S(=O)(/N=C(\[O-])C[n+]1ccccc1)c1ccc(Cl)cc1` has a solubility kinetic greater than 0.0466 mg/mL. With `Cc1ccccc1N1CCN(CCCN2C(=O)C3CCCCN3C2=O)CC1` (centres undefined) the solubility kinetic was 0.0407 mg/mL (≈ 110 µM). Compound `O=C(Nc1ccccc1F)c1ccc(CN2CCN(c3ccccc3)CC2)cc1` has a solubility kinetic of 0.0041 mg/mL (≈ 10.5 µM). In the case of `Cl.c1ccc2c(c1)nc1n2CCN1CCN1CCCC1`, the solubility kinetic is reported as greater than 0.0494 mg/mL. With `CCN(C(=O)CCCCC(=O)N(CC)c1ccccc1)c1ccccc1` the solubility kinetic was greater than 0.0529 mg/mL. Work on `Cc1onc(-c2ccccc2Cl)c1C(=O)OCC(=O)N1CCCCC1` yielded a solubility kinetic greater than 0.0544 mg/mL. With `CN(C)CC/C=C1\c2ccccc2Sc2cc(F)c(Cl)cc21.Cl` the solubility kinetic was 0.043 mg/mL. With `CCOc1ccc2[nH]cc(-c3csc(N)n3)c2c1` the solubility kinetic was 0.0205 mg/mL (≈ 79 µM). Compound `Cc1ccc(CN2C(=O)CSC(C)C2=O)cc1` (centres undefined) has a solubility kinetic greater than 0.0374 mg/mL. In the case of `CC(=O)CSc1nc(-c2ccccc2)c(-c2ccccc2)o1`, the solubility kinetic is reported as 0.0031 mg/mL (≈ 10 µM). For `COC(=O)C1=C(C)NC(=O)NC1c1c(O)ccc2ccccc12` (centres undefined), the solubility kinetic was 0.0152 mg/mL (≈ 48.7 µM). Work on `Cc1ccc(C)c(NC(=O)/C(C#N)=C/c2ccc[nH]2)c1` yielded a solubility kinetic of 0.0037 mg/mL (≈ 13.9 µM). For `CN(Cc1ccccc1)C(=O)COC(=O)c1ccc[nH]c1=O`, the solubility kinetic was greater than 0.045 mg/mL. With `N#C/C(=C\c1cccnc1)c1ccccn1` the solubility kinetic was greater than 0.0311 mg/mL. In the case of `CCOC(=O)N1CCN(C(=O)COC(=O)c2ccc(O)cc2O)CC1`, the solubility kinetic is reported as greater than 0.0529 mg/mL. For `O=C1NC(=Nc2ccc(O)cc2)S/C1=C\C=C\c1ccco1`, the solubility kinetic was 0.0047 mg/mL (≈ 15 µM). `O=C(CNC(=O)c1ccco1)OCc1ccccc1Cl` showed a solubility kinetic greater than 0.0441 mg/mL. With `CSc1ccc(C(=O)NCC(=O)O)cc1[N+](=O)[O-]` the solubility kinetic was greater than 0.0405 mg/mL. With `O=C1CSC(c2ccc([N+](=O)[O-])cc2)N1Cc1ccccc1` (centres undefined) the solubility kinetic was 0.0325 mg/mL (≈ 103 µM). `O=C(NC(=O)c1ccccc1F)OCc1ccc(Cl)cc1Cl` showed a solubility kinetic of less than 0.0007 mg/mL. In the case of `Cc1ccc(Cl)cc1NC(=O)COC(=O)CSc1ccccc1`, the solubility kinetic is reported as 0.0072 mg/mL (≈ 20.6 µM). Compound `O=C(CN1C(=O)NC2(CCCC2)C1=O)Nc1cccc(Cl)c1` has a solubility kinetic greater than 0.0483 mg/mL. `CC(C(=O)O/N=C(\N)c1cccnc1)c1ccc([N+](=O)[O-])cc1` (centres undefined) showed a solubility kinetic of 0.0412 mg/mL (≈ 131 µM). Work on `Cc1ccc(CNC(=O)c2cccnc2Sc2cccc(Cl)c2)cc1` yielded a solubility kinetic of 0.0005 mg/mL (≈ 1.36 µM). `Cn1c(CO)nc2c3ccccc3ccc21` gave a solubility kinetic greater than 0.0318 mg/mL. `O=C(/C=C/c1ccc([N+](=O)[O-])cc1)OCc1cnc(-c2ccccc2)o1` gave a solubility kinetic of 0.0068 mg/mL (≈ 19.4 µM).
